Key:
Cholinesterase [1] = target: Cholinesterase (Homo sapiens, UniProt P06276); experiment: Inhibition of human BChE using acetylthiocholine iodide or butyrylthiocholine iodide as substrate preincubated for 5 mins followed by substrate addition by Ellman's method
Cholinesterase [2] = target: Cholinesterase (Equus caballus, UniProt P81908); experiment: Inhibition of horse serum BChE using acetylthiocholine iodide or butyrylthiocholine iodide as substrate preincubated for 5 mins followed by substrate addition by Ellman's method
Cholinesterase (Equus caballus, UniProt P81908), sequence (P81908 whole entry): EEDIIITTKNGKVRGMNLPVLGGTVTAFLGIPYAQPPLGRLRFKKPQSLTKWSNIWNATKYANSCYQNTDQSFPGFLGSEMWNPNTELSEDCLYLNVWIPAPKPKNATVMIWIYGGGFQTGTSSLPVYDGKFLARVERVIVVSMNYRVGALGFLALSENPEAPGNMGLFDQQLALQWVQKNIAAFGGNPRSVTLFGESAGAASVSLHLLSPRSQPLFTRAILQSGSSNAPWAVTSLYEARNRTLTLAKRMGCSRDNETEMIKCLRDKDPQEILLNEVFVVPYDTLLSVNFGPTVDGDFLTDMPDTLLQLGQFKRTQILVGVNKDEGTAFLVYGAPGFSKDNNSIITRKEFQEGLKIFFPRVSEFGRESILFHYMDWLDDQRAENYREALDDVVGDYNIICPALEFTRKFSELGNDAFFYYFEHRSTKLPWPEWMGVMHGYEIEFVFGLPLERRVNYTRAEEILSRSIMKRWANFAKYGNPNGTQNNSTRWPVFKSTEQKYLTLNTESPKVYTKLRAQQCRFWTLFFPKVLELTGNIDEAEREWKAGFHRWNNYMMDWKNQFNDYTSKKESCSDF

SH-SY5Y [3] = experiment: Cytotoxicity against human SH-SY5Y cells assessed as reduction in cell viability at 10 uM by MTT assay; format: toxicity, cell-based
[4] = Permeability of compound incubated for 18 hrs by PAMPA-BBB assay; format: ADME; conditions: read-out: permeability
HT-22 = experiment: Cytotoxicity against mouse HT-22 cells assessed as reduction in cell viability at 10 uM by MTT assay; format: toxicity, cell-based; conditions: ht-22, 10 µM
PC-12 [5] = experiment: Cytotoxicity against rat PC-12 cells assessed as reduction in cell viability at 10 uM by MTT assay; format: toxicity, cell-based; conditions: pc-12, 10 µM
[6] = Cytotoxicity against human SH-SY5Y cells assessed as cell survival rate at 10 uM by MTT assay; format: toxicity, cell-based; conditions: read-out: Activity
SH-SY5Y [7] = experiment: Neuroprotective activity against amyloid beta (1 to 42)-induced cell damage in human SH-SY5Y cells assessed as cell survival at 5 uM pretreated for 2 hrs followed by amyloid beta (1 to 42) addition and measured after 24 hrs by MTT assay; format: functional; conditions: time 26 hrs, read-out: Activity
BV-2 = experiment: Cytotoxicity against mouse BV-2 cells assessed as reduction in cell viability at 10 uM by MTT assay; format: toxicity, cell-based; conditions: bv-2, 10 µM
SH-SY5Y [8] = experiment: Neuroprotective activity against amyloid beta (1 to 42)-induced cell damage in human SH-SY5Y cells assessed as cell survival at 2 uM pretreated for 2 hrs followed by amyloid beta (1 to 42) addition and measured after 24 hrs by MTT assay; format: functional; conditions: time 26 hrs, read-out: Activity
[9] = Cytotoxicity against mouse BV-2 cells assessed as cell survival rate at 10 uM by MTT assay; format: toxicity, cell-based; conditions: read-out: Activity
[10] = n-octanol-water partition coefficient, log P of the compound by HPLC analysis; format: physicochemical
[11] = Cytotoxicity against mouse HT-22 cells assessed as cell survival rate at 10 uM by MTT assay; format: toxicity, cell-based; conditions: read-out: Activity
PC-12 [12] = experiment: Neuroprotective activity against H2O2-induced cell damage in rat PC-12 cells assessed as survival rate at 5 to 10 uM pretreated for 2 hrs followed by H2O2 addition and measured after 24 hrs by MTT assay; format: functional; conditions: dose 5-10 µM, time 26 hrs
[13] = Cytotoxicity against rat PC-12 cells assessed as cell survival rate at 10 uM by MTT assay; format: toxicity, cell-based; conditions: read-out: Activity
SH-SY5Y [14] = experiment: Neuroprotective activity against amyloid beta (1 to 42)-induced cell damage in human SH-SY5Y cells assessed as cell survival rate at 25 uM pretreated for 2 hrs followed by amyloid beta (1 to 42) addition and measured after 24 hrs by MTT assay; format: functional; conditions: time 26 hrs

Cholinesterase (Homo sapiens, UniProt P06276), sequence (P06276 whole entry): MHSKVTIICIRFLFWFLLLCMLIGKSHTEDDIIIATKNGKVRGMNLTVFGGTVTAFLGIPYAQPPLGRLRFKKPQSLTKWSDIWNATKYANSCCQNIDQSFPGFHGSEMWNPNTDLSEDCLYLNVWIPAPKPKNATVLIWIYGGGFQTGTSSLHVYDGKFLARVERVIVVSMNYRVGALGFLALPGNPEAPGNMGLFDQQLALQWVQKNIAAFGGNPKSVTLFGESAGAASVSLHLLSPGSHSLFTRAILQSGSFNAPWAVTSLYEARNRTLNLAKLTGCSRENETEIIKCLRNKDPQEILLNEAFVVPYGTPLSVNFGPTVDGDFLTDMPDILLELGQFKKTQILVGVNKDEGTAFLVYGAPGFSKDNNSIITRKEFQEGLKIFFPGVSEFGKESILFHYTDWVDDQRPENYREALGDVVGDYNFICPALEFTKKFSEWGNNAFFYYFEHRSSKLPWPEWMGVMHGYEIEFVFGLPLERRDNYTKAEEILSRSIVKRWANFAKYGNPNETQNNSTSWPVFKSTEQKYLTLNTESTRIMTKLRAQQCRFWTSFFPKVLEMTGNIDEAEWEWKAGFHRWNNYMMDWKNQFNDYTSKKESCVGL

## CCN(CC)Cc1ccccc1CNC(=O)c1ccc(Br)c(NC(=O)c2ccc(F)cc2)c1
Cholinesterase [1]
  IC50: 2.58 nM
Cholinesterase [2]
  IC50: 2.42 nM

## CCN(CC)Cc1ccccc1CNC(=O)c1cccc(NC(=O)C2CCCCC2)c1
Cholinesterase [1]
  IC50: 3.71 nM
Cholinesterase [2]
  IC50: 7.9 nM

## CCN(CC)Cc1ccccc1CNC(=O)c1cccc(NC(=O)c2ccc(F)cc2)c1Br
Cholinesterase [1]
  IC50: 1840 nM
Cholinesterase [2]
  IC50: 14.4 nM

## CN(C)Cc1ccccc1CNC(=O)c1cccc(NC(=O)c2cccs2)c1
SH-SY5Y [3]
  Activity: Non-Toxic
[4]
  Papp at 18 h: 6.82 ×10⁻⁶ cm/s
HT-22
  Activity: Non-Toxic
PC-12 [5]
  Activity: Non-Toxic
[6]
  viability at 10 µM: > 70%
SH-SY5Y [7]
  viability at 5 µM: 68%
BV-2
  Activity: Non-Toxic
SH-SY5Y [8]
  viability at 2 µM: 82.6%
[9]
  viability at 10 µM: > 70%
[10]
  logP: 1.93
[11]
  viability at 10 µM: > 70%
PC-12 [12]
  Activity: 61.7%
[13]
  viability at 10 µM: > 70%
SH-SY5Y [14]
  Activity: 64.12%

## CCN(CC)Cc1ccccc1CNC(=O)c1ccc(NC(=O)c2ccc(F)cc2)cc1
Cholinesterase [1]
  IC50: 5.29 nM
Cholinesterase [2]
  IC50: 4.99 nM

## CCN(CC)Cc1ccccc1CNC(=O)c1cc(NC(=O)c2ccc(F)cc2)cc(C(F)(F)F)c1
Cholinesterase [1]
  IC50: 8.67 nM
Cholinesterase [2]
  IC50: 1.35 nM

## CCN(CC)Cc1ccccc1CNC(=O)c1cccc(OC(=O)c2cccs2)c1
Cholinesterase [1]
  IC50: 132 nM
Cholinesterase [2]
  IC50: 158 nM

## Cc1ccccc1NC(=O)c1cccc(NC(=O)c2cccs2)c1
Cholinesterase [1]
  IC50: 11100 nM
Cholinesterase [2]
  IC50: 12900 nM

## CN(C)Cc1ccccc1NC(=O)c1cccc(NC(=O)c2cccs2)c1
Cholinesterase [1]
  IC50: 1240 nM

## CCN(CC)Cc1ccccc1CNC(=O)c1cccc(NC(=O)c2ccc(Br)cc2)c1
Cholinesterase [1]
  IC50: 0.13 nM
Cholinesterase [2]
  IC50: 0.087 nM
[10]
  logP: 2.73

## CCN(CC)Cc1ccccc1CNC(=O)c1cc(NC(=O)c2ccc(F)cc2)ccc1Br
Cholinesterase [1]
  IC50: 16.1 nM
Cholinesterase [2]
  IC50: 3.53 nM

## CCN(CC)Cc1ccccc1CNC(=O)c1cc(NC(=O)c2ccc(F)cc2)cc(OC)c1
Cholinesterase [1]
  IC50: 136 nM
Cholinesterase [2]
  IC50: 0.82 nM

## CCN(CC)Cc1ccccc1CNC(=O)c1cc(Cl)cc(NC(=O)c2ccc(F)cc2)c1
SH-SY5Y [3]
  Activity: Non-Toxic
[4]
  Papp at 18 h: 7.54 ×10⁻⁶ cm/s
Cholinesterase [1]
  IC50: 0.22 nM
HT-22
  Activity: Non-Toxic
PC-12 [5]
  Activity: Non-Toxic
Cholinesterase [2]
  IC50: 0.16 nM
[6]
  viability at 10 µM: > 70%
BV-2
  Activity: Non-Toxic
[9]
  viability at 10 µM: > 70%
[10]
  logP: 1.11
[11]
  viability at 10 µM: > 70%
[13]
  viability at 10 µM: > 70%

## CCN(CC)Cc1ccccc1CNC(=O)c1cccc(NC(=O)c2ccc(F)cc2)c1C
[4]
  Papp at 18 h: 11.4 ×10⁻⁶ cm/s
Cholinesterase [1]
  IC50: 0.26 nM
Cholinesterase [2]
  IC50: 0.14 nM
[10]
  logP: 1.02

## CCN(CC)Cc1ccccc1CNC(=O)c1cccc(NC(=O)c2cccs2)c1
SH-SY5Y [3]
  Activity: Non-Toxic
[4]
  Papp at 18 h: 19 ×10⁻⁶ cm/s
Cholinesterase [1]
  IC50: 0.35 nM
HT-22
  Activity: Non-Toxic
PC-12 [5]
  Activity: Non-Toxic
[6]
  viability at 10 µM: > 70%
BV-2
  Activity: Non-Toxic
[9]
  viability at 10 µM: > 70%
[10]
  logP: 2.11
[11]
  viability at 10 µM: > 70%
[13]
  viability at 10 µM: > 70%

## CCN(CC)Cc1ccccc1NC(=O)c1cccc(NC(=O)c2cccs2)c1
Cholinesterase [1]
  IC50: 540 nM

## CCN(CC)Cc1ccccc1CNC(=O)c1cc(NC(=O)c2ccc(F)cc2)cc([N+](=O)[O-])c1
SH-SY5Y [3]
  Activity: Non-Toxic
Cholinesterase [1]
  IC50: 1.04 nM
HT-22
  Activity: Non-Toxic
PC-12 [5]
  Activity: Non-Toxic
Cholinesterase [2]
  IC50: 1.27 nM
[6]
  viability at 10 µM: > 70%
BV-2
  Activity: Non-Toxic
[9]
  viability at 10 µM: > 70%
[11]
  viability at 10 µM: > 70%
[13]
  viability at 10 µM: > 70%

## CCN(CC)Cc1cccc(CNC(=O)c2cccc(NC(=O)c3cccs3)c2)c1
Cholinesterase [1]
  IC50: 48900 nM
Cholinesterase [2]
  IC50: 55000 nM

## CCCN(CCC)Cc1ccccc1NC(=O)c1cccc(NC(=O)c2cccs2)c1
Cholinesterase [1]
  IC50: 870 nM
Cholinesterase [2]
  IC50: 120 nM

## CCN(CC)Cc1ccccc1CNC(=O)c1cc(C#N)cc(NC(=O)c2ccc(F)cc2)c1
Cholinesterase [1]
  IC50: 3.16 nM
Cholinesterase [2]
  IC50: 1.51 nM

## CCN(CC)Cc1ccccc1CNC(=O)c1cccc(NC(=O)c2ccc(OC)cc2)c1
SH-SY5Y [3]
  Activity: Non-Toxic
HT-22
  Activity: Non-Toxic
PC-12 [5]
  Activity: Non-Toxic
[6]
  viability at 10 µM: > 70%
BV-2
  Activity: Non-Toxic
[9]
  viability at 10 µM: > 70%
[11]
  viability at 10 µM: > 70%
[13]
  viability at 10 µM: > 70%
